The NIST ThermoML archive (doi:10.1007/s10765-007-0346-0)

Key:
[1] = xn = mol fraction of the nth substance listed; details: 101 kPa, Liquid, Capillary tube (Ostwald / Ubbelohde) method
[2] = 101.33 kPa, Liquid, Capillary tube (Ostwald / Ubbelohde) method

CC(C)OC(C)C [diisopropyl ether] + CCCCCC
kinematic viscosity [m2/s], [1]
Details	283.15 K	298.15 K	313.15 K
x1 = 0.0523	5.094e-07	4.477e-07	4.011e-07
x1 = 0.0915	5.076e-07	4.467e-07	3.994e-07
x1 = 0.189	5.031e-07	4.446e-07	3.961e-07
x1 = 0.3016	4.99e-07	4.426e-07	3.929e-07
x1 = 0.398	4.963e-07	4.409e-07	3.907e-07
x1 = 0.4998	4.944e-07	4.397e-07	3.889e-07
x1 = 0.6007	4.931e-07	4.383e-07	3.874e-07
x1 = 0.6975	4.932e-07	4.381e-07	3.866e-07
x1 = 0.7976	4.934e-07	4.381e-07	3.859e-07
x1 = 0.8959	4.945e-07	4.386e-07	3.856e-07
x1 = 0.9432	4.953e-07	4.385e-07	3.86e-07

CC(C)OC(C)C [diisopropyl ether] + CCCCCCC
kinematic viscosity [m2/s], [1]
Details	283.15 K	298.15 K	313.15 K
x1 = 0.0508	6.578e-07	5.658e-07	4.91e-07
x1 = 0.1002	6.473e-07	5.567e-07	4.831e-07
x1 = 0.1986	6.265e-07	5.387e-07	4.719e-07
x1 = 0.2973	6.068e-07	5.218e-07	4.61e-07
x1 = 0.3992	5.88e-07	5.055e-07	4.498e-07
x1 = 0.4991	5.693e-07	4.9e-07	4.385e-07
x1 = 0.5979	5.533e-07	4.779e-07	4.273e-07
x1 = 0.7009	5.372e-07	4.679e-07	4.166e-07
x1 = 0.8008	5.215e-07	4.588e-07	4.058e-07
x1 = 0.8954	5.091e-07	4.496e-07	3.96e-07
x1 = 0.95	5.016e-07	4.443e-07	3.909e-07

COC(C)(C)C [2-methoxy-2-methylpropane]
[2]
Details	kinematic viscosity [m2/s]
283.15 K	5.191e-07
298.15 K	4.529e-07
313.15 K	3.961e-07

CCCCCC [hexane]
[2]
Details	kinematic viscosity [m2/s]
283.15 K	5.125e-07
298.15 K	4.493e-07
313.15 K	4.039e-07

CC(C)OC(C)C [diisopropyl ether] + CCC(C)CC
[1], x1 = 1
Details	kinematic viscosity [m2/s]
283.15 K	4.959e-07
298.15 K	4.392e-07
313.15 K	3.861e-07

COC(C)(C)C [2-methoxy-2-methylpropane] + CCCCCC
kinematic viscosity [m2/s], [1]
Details	283.15 K	298.15 K	313.15 K
x1 = 0.0479	5.097e-07	4.478e-07	4.017e-07
x1 = 0.0974	5.074e-07	4.465e-07	3.994e-07
x1 = 0.1983	5.034e-07	4.442e-07	3.96e-07
x1 = 0.2988	5.004e-07	4.427e-07	3.932e-07
x1 = 0.3979	4.99e-07	4.418e-07	3.91e-07
x1 = 0.4975	4.99e-07	4.413e-07	3.897e-07
x1 = 0.5974	4.996e-07	4.419e-07	3.895e-07
x1 = 0.6968	5.025e-07	4.431e-07	3.895e-07
x1 = 0.7911	5.059e-07	4.45e-07	3.913e-07
x1 = 0.8976	5.125e-07	4.484e-07	3.926e-07
x1 = 0.9486	5.147e-07	4.505e-07	3.94e-07

CCC(C)CC [3-methylpentane] + CC(C)OC(C)C
kinematic viscosity [m2/s], [1]
Details	283.15 K	298.15 K	313.15 K
x2 = 0	4.928e-07	4.366e-07	3.881e-07
x2 = 0.0498	4.914e-07	4.364e-07	3.872e-07
x2 = 0.1011	4.903e-07	4.355e-07	3.861e-07
x2 = 0.201	4.886e-07	4.348e-07	3.847e-07
x2 = 0.3018	4.877e-07	4.342e-07	3.837e-07
x2 = 0.4014	4.871e-07	4.339e-07	3.83e-07
x2 = 0.501	4.876e-07	4.338e-07	3.827e-07
x2 = 0.5993	4.883e-07	4.344e-07	3.831e-07
x2 = 0.6973	4.897e-07	4.352e-07	3.833e-07
x2 = 0.8014	4.912e-07	4.366e-07	3.842e-07
x2 = 0.8997	4.934e-07	4.377e-07	3.849e-07
x2 = 0.9501	4.947e-07	4.385e-07	3.854e-07

CCCCCCC [heptane] + CC(C)OC(C)C
[1], x2 = 0
Details	kinematic viscosity [m2/s]
283.15 K	6.697e-07
298.15 K	5.754e-07
313.15 K	4.986e-07
